Like-named read-outs stand apart in the source and are kept apart here.
Conditions: for release profile: versus control, FIG. 12
Experimental: Two layers of dialysis tubing (Thermo-Fisher, Waltham, Mass.) were cut to fit across the opening at the joint of the Franz cell. For control measurements, 500 μL of a 1.3 mg/mL solution of nicotine in D.I. water was pipetted into the top of the cell. Samples were removed from the receptor cell at various time points as indicated in the graph in FIG. 12.
Subsequent experiments added small amounts of polymer-coated carbon nanoparticles between the two layers of dialysis tubing. The overall coverage was approximated by taking a photograph of the combined double layer nanoparticle sandwich from the top and assessing the darkness of the layer. […] For approximately 35% coverage [circles] and for full (100%) coverage [triangles], a sample of 500 μL of a 1.3 mg/mL solution of nicotine in D.I. water was pipetted into the top of the cell and samples were removed at various time points.

CN1CCCC1c1cccnc1 (stereo not drawn) [nicotine]
release profile (approximately 35% coverage with polymer-coated carbon nanoparticles between two layers of dialysis tubing): very similar to the control
reduction in the total nicotine delivered over 24 hours (full (100%) coverage with polymer-coated carbon nanoparticles between two layers of dialysis tubing, versus control without particles, 500 μL of 1.3 mg/mL nicotine in D.I. water): 50%
release profile (full (100%) coverage with polymer-coated carbon nanoparticles between two layers of dialysis tubing): sizeable difference

— patent US10646454B2, “Microcell delivery systems including charged or magnetic particles for regulating rate of administration of actives” (E INK CALIFORNIA, LLC, priority 2017, dated 2020)
